Each block holds one molecule with its values, some of them ahead of it.
Key:
[1] = target: von Hippel-Lindau disease tumor suppressor/Histone deacetylase 8 (+); assay: PROTAC activity at VHL/HDAC8 in human Jurkat cells assessed as induction of HDAC8 degradation measured for 6 hrs by Western blot analysis
[2] = target: Histone deacetylase; assay: Inhibition of HDAC in human HeLa nuclear extract using Boc-Lys(Ac)-AMC or Boc-Lys(Tfa)-AMC as substrate pre-incubated for 5 mins followed by substrate addition and measured after 30 mins by fluorescence assay; type: cell-free
[3] = target: T1, Histone deacetylase 8 (Homo sapiens, UniProt Q9BY41); assay: Inhibition of HDAC8 (unknown origin) using biotinylated histone H3 KAc peptide (1 to 21 residues) as substrate by HTRF assay
T1 sequence (Q9BY41 whole entry): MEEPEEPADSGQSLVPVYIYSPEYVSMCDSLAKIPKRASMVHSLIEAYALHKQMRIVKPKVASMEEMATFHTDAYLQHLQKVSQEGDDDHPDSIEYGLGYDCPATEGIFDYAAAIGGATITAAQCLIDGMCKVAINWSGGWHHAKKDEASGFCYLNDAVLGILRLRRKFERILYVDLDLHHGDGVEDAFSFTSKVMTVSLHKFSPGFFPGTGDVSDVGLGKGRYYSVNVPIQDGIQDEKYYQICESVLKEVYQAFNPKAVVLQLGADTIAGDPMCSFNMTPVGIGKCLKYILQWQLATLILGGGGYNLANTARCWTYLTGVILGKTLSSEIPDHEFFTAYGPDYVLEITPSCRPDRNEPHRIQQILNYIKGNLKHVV

[4] = target: Histone deacetylase 2 (Homo sapiens, UniProt Q92769); assay: Inhibition of HDAC2 (unknown origin)
Histone deacetylase 2, sequence (Q92769 whole entry): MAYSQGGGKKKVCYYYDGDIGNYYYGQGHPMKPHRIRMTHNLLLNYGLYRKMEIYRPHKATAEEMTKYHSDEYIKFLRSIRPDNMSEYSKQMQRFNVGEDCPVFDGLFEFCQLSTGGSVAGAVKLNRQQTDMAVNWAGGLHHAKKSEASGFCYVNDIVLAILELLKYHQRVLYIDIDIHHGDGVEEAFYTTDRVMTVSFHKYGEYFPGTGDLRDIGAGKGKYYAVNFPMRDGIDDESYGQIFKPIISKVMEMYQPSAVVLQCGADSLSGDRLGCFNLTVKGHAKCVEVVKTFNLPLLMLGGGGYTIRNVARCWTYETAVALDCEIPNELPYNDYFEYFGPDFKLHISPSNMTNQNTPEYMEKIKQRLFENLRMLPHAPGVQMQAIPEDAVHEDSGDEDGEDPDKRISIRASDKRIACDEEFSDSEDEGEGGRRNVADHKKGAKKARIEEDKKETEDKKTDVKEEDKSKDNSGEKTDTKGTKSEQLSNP

- DC50 [1]: 0.58 µM
Compound: O=C1CCC(N2C(=O)c3cccc(NCc4cn(CCOCCOc5ccc(Cn6ccc7ccc(C(=O)NO)cc76)cc5)nn4)c3C2=O)C(=O)N1 (stereo not given)

- DC50 [1]: 0.0018 µM
Compound: COc1ccc(C(=O)NO)cc1OCc1ccc(C(=O)NCCCCCCCCNc2cccc3c2C(=O)N(C2CCC(=O)NC2=O)C3=O)cc1 (stereo not given)

- IC50 [2]: > 10 µM
Compound: COc1ccc(/C=C/C(=O)NO)c(-c2ccc(Br)cc2)c1

- IC50 [3]: 40.2 µM
- IC50 [4]: 129 µM
Compound: O=c1cc(-c2ccccc2)oc2cc(O)cc(O)c12 [CHRYSIN]
